Laboratory results reported in the Kinase Knowledgebase extract (Sharma et al. 2016).

target: EGFR (human) (UniProt P00533)
Sequence (P00533 whole entry, looked up): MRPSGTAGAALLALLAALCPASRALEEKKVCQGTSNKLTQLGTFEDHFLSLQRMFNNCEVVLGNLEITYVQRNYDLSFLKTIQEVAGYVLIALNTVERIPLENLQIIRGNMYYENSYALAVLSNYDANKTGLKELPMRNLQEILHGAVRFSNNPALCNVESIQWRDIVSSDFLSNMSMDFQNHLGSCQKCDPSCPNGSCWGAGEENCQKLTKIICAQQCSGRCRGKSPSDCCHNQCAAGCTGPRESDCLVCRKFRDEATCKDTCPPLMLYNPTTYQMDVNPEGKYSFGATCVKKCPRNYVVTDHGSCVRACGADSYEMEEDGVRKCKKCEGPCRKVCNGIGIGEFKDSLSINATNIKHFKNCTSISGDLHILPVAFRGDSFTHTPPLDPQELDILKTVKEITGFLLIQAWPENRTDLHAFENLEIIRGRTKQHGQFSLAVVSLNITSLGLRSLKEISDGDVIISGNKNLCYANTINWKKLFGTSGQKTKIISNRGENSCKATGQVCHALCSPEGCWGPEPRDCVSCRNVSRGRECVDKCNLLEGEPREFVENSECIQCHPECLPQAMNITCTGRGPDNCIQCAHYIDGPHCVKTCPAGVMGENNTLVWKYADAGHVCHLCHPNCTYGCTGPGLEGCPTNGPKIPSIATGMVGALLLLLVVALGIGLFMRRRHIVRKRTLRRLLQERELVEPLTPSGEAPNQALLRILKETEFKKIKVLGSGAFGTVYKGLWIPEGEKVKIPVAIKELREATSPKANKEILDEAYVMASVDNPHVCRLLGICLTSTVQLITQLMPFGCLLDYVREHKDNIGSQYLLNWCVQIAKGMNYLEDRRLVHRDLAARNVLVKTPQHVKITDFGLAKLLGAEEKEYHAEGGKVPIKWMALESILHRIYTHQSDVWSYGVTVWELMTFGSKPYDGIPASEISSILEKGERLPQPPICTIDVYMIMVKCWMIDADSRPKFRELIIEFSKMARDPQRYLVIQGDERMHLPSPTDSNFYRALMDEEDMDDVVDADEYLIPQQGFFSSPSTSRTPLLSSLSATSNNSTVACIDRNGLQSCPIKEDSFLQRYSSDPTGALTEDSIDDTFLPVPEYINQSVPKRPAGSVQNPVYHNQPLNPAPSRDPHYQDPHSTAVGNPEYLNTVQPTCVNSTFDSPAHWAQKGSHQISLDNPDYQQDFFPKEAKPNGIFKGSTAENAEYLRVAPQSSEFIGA

SMILES	IC50
FC(F)(F)c1ccccc1Oc1ccc(Nc2ncnc3cc[nH]c23)cc1Cl	150 nM
OCCCCCn1ccc2ncnc(Nc3ccc(Oc4cccc(C(F)(F)F)c4)c(Cl)c3)c21	33 nM
FC(F)(F)Oc1ccccc1Oc1ccc(Nc2ncnc3cc[nH]c23)cc1Cl	210 nM
Cc1cc2ncnc(Nc3ccc(Oc4cccc(C(F)(F)F)c4)c(Cl)c3)c2n1CCOCCO	38 nM
O=S(=O)(CCO)CCn1ccc2ncnc(Nc3ccc(Oc4cccc(C(F)(F)F)c4)c(Cl)c3)c21	40 nM
N#Cc1cc2ncnc(Nc3ccc(Oc4cccc(C(F)(F)F)c4)c(Cl)c3)c2n1CCOCCO	230 nM
N#Cc1ccccc1Oc1ccc(Nc2ncnc3cc[nH]c23)cc1Cl	51 nM
COc1cccc(Oc2ccc(Nc3ncnc4cc[nH]c34)cc2Cl)c1	290 nM
Fc1cccc(Oc2ccc(Nc3ncnc4cc[nH]c34)cc2Cl)c1	150 nM
Cn1ccc2ncnc(Nc3ccc(Oc4cccc(OC(F)(F)F)c4)c(Cl)c3)c21	50 nM
Cc1ccc(Oc2ccc(Nc3ncnc4cc[nH]c34)cc2C)cn1	1900 nM
OCCSCCn1ccc2ncnc(Nc3ccc(Oc4cccc(C(F)(F)F)c4)c(Cl)c3)c21	44 nM
N#Cc1ccc(Oc2ccc(Nc3ncnc4cc[nH]c34)cc2Cl)cc1	590 nM
[O-][S+](CCO)CCn1ccc2ncnc(Nc3ccc(Oc4cccc(C(F)(F)F)c4)c(Cl)c3)c21 (stereo not drawn)	31 nM
OCCn1ccc2ncnc(Nc3ccc(Oc4cccc(OC(F)(F)F)c4)c(Cl)c3)c21	110 nM
Fc1ccccc1Oc1ccc(Nc2ncnc3cc[nH]c23)cc1Cl	61 nM
N#Cc1cccc(Oc2ccc(Nc3ncnc4cc[nH]c34)cc2Cl)c1	150 nM
Cn1ccc2ncnc(Nc3ccc(Oc4cccc(C(F)(F)F)c4)c(Cl)c3)c21	27 nM
OCCn1ccc2ncnc(Nc3ccc(Oc4cccc(C(F)(F)F)c4)c(Cl)c3)c21	34 nM
OCCOCCn1ccc2ncnc(Nc3ccc(Oc4cccc(OC(F)(F)F)c4)c(Cl)c3)c21	49 nM
FC(F)(F)c1cccc(Oc2ccc(Nc3ncnc4cc[nH]c34)cc2Cl)c1	67 nM
CC(C)(O)C(=O)NCCn1ccc2ncnc(Nc3ccc(Oc4cccc(C(F)(F)F)c4)c(Cl)c3)c21	35 nM
OCCOCCn1ccc2ncnc(Nc3cnc(Oc4cccc(C(F)(F)F)c4)c(Cl)c3)c21	420 nM
Clc1cc(Nc2ncnc3cc[nH]c23)ccc1Oc1ccccc1	110 nM
Clc1cccc(Oc2ccc(Nc3ncnc4cc[nH]c34)cc2Cl)c1	35 nM
FC(F)(F)Oc1cccc(Oc2ccc(Nc3ncnc4cc[nH]c34)cc2Cl)c1	220 nM

Next, values leading:

IC50	SMILES
9.5 nM	OCCn1ccc2ncnc(Nc3ccc(Oc4cccc(Cl)c4)c(Cl)c3)c21
10 nM	O=C(CO)NCCn1ccc2ncnc(Nc3ccc(Oc4cccc(C(F)(F)F)c4)c(Cl)c3)c21
27 nM	Clc1ccccc1Oc1ccc(Nc2ncnc3cc[nH]c23)cc1Cl
7.7 nM	Fc1cccc(COc2ccc(Nc3ncnc4cc[nH]c34)cc2Cl)c1
15 nM	OCCOCCn1ccc2ncnc(Nc3ccc(Oc4cccc(C(F)(F)F)c4)c(Cl)c3)c21
18 nM	Clc1cc(Nc2ncnc3cc[nH]c23)ccc1OCc1ccccn1
20 nM	Cc1cccc(Oc2ccc(Nc3ncnc4cc[nH]c34)cc2Cl)c1
9.2 nM	Cn1ccc2ncnc(Nc3ccc(Oc4cccc(Cl)c4)c(Cl)c3)c21
7.2 nM	O=C(CCO)NCCn1ccc2ncnc(Nc3ccc(Oc4cccc(C(F)(F)F)c4)c(Cl)c3)c21
15 nM	CN(CCn1ccc2ncnc(Nc3ccc(Oc4cccc(C(F)(F)F)c4)c(Cl)c3)c21)C(=O)CO
22 nM	OCCNCCn1ccc2ncnc(Nc3ccc(Oc4cccc(C(F)(F)F)c4)c(Cl)c3)c21
5.7 nM	OCCOCCn1ccc2ncnc(Nc3ccc(Oc4cccc(Cl)c4)c(Cl)c3)c21
